How the values were obtained:
[1] = test system: norepinephrine uptake by synaptosomes from rat brain; experiment: blockage of norepinephrine uptake by synaptosomes from rat brain; type: biochemical; conditions: Table 1, norepinephrine 0.48 μM
From the text: (§1) This blockade is shown both in vitro with radioactive labelled compounds to determine the amount of monoamine uptake by synaptosomes from rat brain, and in vivo by a variety of methods. Among the physiologically active monoamines whose uptake is blocked by the compounds of this invention are included serotonin, norepinephrine and dopamine (3,4-dihydroxyphenylethylamine). […] Tables 1 and 2 which follow set forth the results of some of the in vitro determinations of the blockage of monoamine uptake by the compounds of this invention. In the tables, column 1 gives the R substituent on the 3-phenylpropylamine and columns 2-4, the concentration in micrograms per ml. that blocks the uptake of a particular amine by 50 percent for the amines--norephinephrine, serotonin, and dopamine. At the head of each column is given the concentration of the particular monoamine used in the experiment.

[2] = test system: serotonin uptake by synaptosomes from rat brain; experiment: blockage of serotonin uptake by synaptosomes from rat brain; type: biochemical; conditions: Table 1, serotonin 0.1 μM
From the text: In the tables, column 1 gives the R substituent on the 3-phenylpropylamine and columns 2-4, the concentration in micrograms per ml. that blocks the uptake of a particular amine by 50 percent for the amines--norephinephrine, serotonin, and dopamine. At the head of each column is given the concentration of the particular monoamine used in the experiment.

[3] = test system: dopamine uptake by synaptosomes from rat brain; experiment: blockage of dopamine uptake by synaptosomes from rat brain; type: biochemical; conditions: Table 1, dopamine 0.2 μM
From the text: as §1

mice [4] = experiment: reserpine hypothermia reversal test; type: in vivo; conditions: for reversal of reserpine hypothermia: in words
Procedure: (§2) The apomorphine hypothermia antagonism test is carried out as follows: mice are injected with a dose of apomorphine known to reduce body temperature approximately 4° C. The compound under test is injected 1/2 hour before the injection of the apomorphine and the temperatures measured 1/2 hour after injection. The degree of antagonism is expressed as a percent reduction (as compared with controls) of the temperature decrease produced by the injection of the apomorphine. The reserpine hypothermia reversal test is carried out as follows: groups of mice are injected with reserpine and 16.5 hours later are injected intraperitoneally with graded doses of the drug, a different dose level being given to each group of mice. Temperatures are measured at 1 hour after injection of the drug under test and again the effectiveness of the drug is expressed as a percentage decrease in the hypothermia induced by the injection of reserpine as compared with the control group. In the tables which follow, Table 4 gives the results in the apomorphine antagonism and reserpine reversal hypothermia tests for the secondary amines of this invention. In the table, the first column gives the substituent attached to the oxygen atom at the 3 position of the propylamine chain; columns 2 to 4 the percent antagonism against apomorphine hypothermia at dose levels of 0.3, 1 and 3 mg./kg. and columns 5-7 the percent reversal of reserpine hypothermia at the same dose levels.

mice [5] = experiment: apomorphine hypothermia antagonism test; type: in vivo; conditions: for antagonism of apomorphine hypothermia: in words; for Percent Antagonism Apomorphine Pre-30 min. / inhibition in vivo at 3 mg/kg / inhibition in vivo at 10 mg/kg: mice; for inhibition in vivo at 3 mg/kg / inhibition in vivo at 10 mg/kg: Mus musculus, read-out: Percent Antagonism Apomorphine Pre-30 min.
Procedure: as §2

[6] = Table 4, mice, 1 mg./kg. intraperitoneally
[7] = Table 4, mice, 3 mg./kg. intraperitoneally
[8] = Table 5, mice, 3 mg./kg. intraperitoneally
[9] = Table 5, mice, 10 mg./kg. intraperitoneally

## Cc1cc(F)ccc1OC(CCN(C)C)c1ccccc1 (stereo not shown) [4-fluoro-o-tolyl, N,N-dimethyl 3-(p-fluoro-o-tolyloxy)-3-phenylpropylamine]
[1]
  Concentration in mcg./ml. that blocks 50% of amine uptake, Norepinephrine: 2.5 µg/mL
[2]
  Concentration in mcg./ml. that blocks 50% of amine uptake, Serotonin: .6 µg/mL
[3]
  Concentration in mcg./ml. that blocks 50% of amine uptake, Dopamine: 40 µg/mL

## CN(C)CCCN1c2ccccc2CCc2ccccc21 [imipramine, reference compound]
Mice [4]
  reversal of reserpine hypothermia: active
Mice [5]
  antagonism of apomorphine hypothermia: active

## CNCCC(Oc1cccc(OC)c1)c1ccccc1 (stereo not shown) [m-anisyl, N-methyl 3-phenyl-3-(m-methoxyphenoxy)propylamine]
Mice [4]; Table 4, mice, 0.3 mg./kg. intraperitoneally
  Percent Antagonism Reserpine Post-60 min.: 8%
Mice [4]; [6]
  Percent Antagonism Reserpine Post-60 min.: 21%
Mice [4]; [7]
  Percent Antagonism Reserpine Post-60 min.: 21%
Mice [4]; Table 5, mice, 1 mg./kg. intraperitoneally
  Percent Antagonism Reserpine Post-60 min.: -1%
Mice [4]; [8]
  Percent Antagonism Reserpine Post-60 min.: 6%
Mice [4]; [9]
  Percent Antagonism Reserpine Post-60 min.: 5%
Mice [5]; Table 4, 0.3 mg./kg.
  Percent Antagonism Apomorphine Pre-30 min.: 15%
Mice [5]; Table 4, 1 mg./kg.
  Percent Antagonism Apomorphine Pre-30 min.: 15%
Mice [5]; Table 4, 3 mg./kg.
  Percent Antagonism Apomorphine Pre-30 min.: 71%
Mice [5]; Table 5, 1 mg./kg.
  Percent Antagonism Apomorphine Pre-30 min.: -12%
Mice [5]; Table 5, 3 mg./kg.
  Percent Antagonism Apomorphine Pre-30 min.: -7%
Mice [5]; Table 5, 10 mg./kg.
  Percent Antagonism Apomorphine Pre-30 min.: -5%

## Cc1cccc(OC(CCN(C)C)c2ccccc2)c1 (stereo not shown) [m-tolyl, N,N-dimethyl 3-phenyl-3-(m-tolyloxy)propylamine]
[1]
  Concentration in mcg./ml. that blocks 50% of amine uptake, Norepinephrine: 12 µg/mL
[2]
  Concentration in mcg./ml. that blocks 50% of amine uptake, Serotonin: .7 µg/mL

## CNCCC=C1c2ccccc2CCc2ccccc21 [nortriptyline, reference compound]
Mice [4]
  reversal of reserpine hypothermia: active
Mice [5]
  antagonism of apomorphine hypothermia: active

## C=CCc1ccccc1OC(CCN(C)C)c1ccccc1 (stereo not shown) [o-allylphenyl, N,N-dimethyl 3-phenyl-3-(o-allylphenoxy)propylamine]
Mice [5]; Table 5, 3 mg./kg.
  inhibition in vivo at 3 mg/kg: 11%
Mice [5]; Table 5, 10 mg./kg.
  inhibition in vivo at 10 mg/kg: 67%

## CN(C)CCC(Oc1ccccc1Br)c1ccccc1 (stereo not shown) [o-bromophenyl, N,N-dimethyl 3-(o-bromophenoxy)-3-phenylpropylamine]
[2]
  Concentration in mcg./ml. that blocks 50% of amine uptake, Serotonin: .1 µg/mL
Mice [4]; [8]
  Percent Antagonism Reserpine Post-60 min.: 18%
Mice [4]; [9]
  Percent Antagonism Reserpine Post-60 min.: 30%
Mice [5]; Table 5, 1 mg./kg.
  Percent Antagonism Apomorphine Pre-30 min.: 19%
Mice [5]; Table 5, 3 mg./kg.
  Percent Antagonism Apomorphine Pre-30 min.: 40%
Mice [5]; Table 5, 10 mg./kg.
  Percent Antagonism Apomorphine Pre-30 min.: 47%
[3]
  Concentration in mcg./ml. that blocks 50% of amine uptake, Dopamine: 5 µg/mL

## CN(C)CCC(Oc1ccccc1F)c1ccccc1 (stereo not shown) [o-fluorophenyl]
Mice [5]; Table 5, 10 mg./kg.
  inhibition in vivo at 10 mg/kg: 3%

## CN(C)CCC(Oc1ccccc1C(F)(F)F)c1ccccc1 (stereo not shown) [o-trifluoromethylphenyl, N,N-dimethyl 3-(o-trifluoromethylphenoxy)-3-phenylpropylamine]
[1]
  Concentration in mcg./ml. that blocks 50% of amine uptake, Norepinephrine: 70 µg/mL
[2]
  Concentration in mcg./ml. that blocks 50% of amine uptake, Serotonin: .16 µg/mL
Mice [4]; [6]
  Percent Antagonism Reserpine Post-60 min.: 9%
Mice [4]; [7]
  Percent Antagonism Reserpine Post-60 min.: 8%
Mice [4]; [9]
  Percent Antagonism Reserpine Post-60 min.: 10%
Mice [5]; Table 4, 1 mg./kg.
  Percent Antagonism Apomorphine Pre-30 min.: 13%
Mice [5]; Table 4, 3 mg./kg.
  Percent Antagonism Apomorphine Pre-30 min.: 28%
Mice [5]; Table 5, 1 mg./kg.
  Percent Antagonism Apomorphine Pre-30 min.: 21%
Mice [5]; Table 5, 3 mg./kg.
  Percent Antagonism Apomorphine Pre-30 min.: 32%
Mice [5]; Table 5, 10 mg./kg.
  Percent Antagonism Apomorphine Pre-30 min.: 55%

## COc1ccc(OC(CCN(C)C)c2ccccc2)cc1 (stereo not shown) [p-anisyl]
Mice [4]; Mus musculus, ip, 1 h, Table 5, mice, 3 mg./kg. intraperitoneally, read-out: Percent Antagonism Reserpine Post-60 min.
  inhibition in vivo at 3 mg/kg: 67%
Mice [5]; Table 5, 3 mg./kg.
  inhibition in vivo at 3 mg/kg: 25%

From patent US4194009A, “Aryloxyphenylpropylamines for obtaining a psychotropic effect” (Eli Lilly and Company, priority 1976, dated 1980)
